This passage reports GI50 and TGI results from PubChem BioAssay (NCI).

What all share (test): NCI-60 cell line screen, 48 h
Assay [1] deals with A498 renal.
Assay [2] relates to ACHN renal.
The test system of assay [3] is CAKI-1 renal.
For assay [4], the system named is HCT-116 colon.
Assay [5] deals with HT29 colon.
For assay [6], the system named is KM12 colon.
The test system of assay [7] is MDA-MB-435.
For assay [8], the system named is NCI-H23 lung.
Assay [9] deals with SW-620 colon.
In assay [10] the test system is EKVX NSCLC.

Each structure is given as a SMILES string. “And” between values parts separate entries of the source, which are not always exact repeats. Equal entries are not always repeated.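 Assay format: 96-well plates, 48-hour exposure. Here, GI50 denotes the concentration required for 50% inhibition of growth. TGI denotes the concentration required for complete inhibition of growth.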

Regarding `C[C@]12CC[C@@H]3c4ccc(O)cc4CC[C@H]3[C@@H]1CC[C@@H]2NS(=O)(=O)c1ccc(-c2ccccc2)cc1`, the GI50 was 1.96 µM in [1]; 2.98 µM in assay [2]; 3.57 µM in [3]; 2.88 µM in [4]; 3.3 µM in assay [5]; 3.81 µM in [6]. For the same molecule, the values for the GI50 in assay [7], in assay [8] and in assay [9] were 3.21 µM, 3.49 µM and 5.54 µM, respectively. The TGI in [1] is 9.13 µM; in assay [2] it was 20.1 µM; in assay [3], above 100 µM; in assay [4], 11.4 µM; in [5] it was 9.16 µM; in assay [6], 18.4 µM. For the same molecule, the values for the TGI in assay [7], in assay [8] and in assay [9] were 12.3 µM, 17.2 µM and above 100 µM, respectively.

In the case of `O=C1c2ccccc2C(=O)c2c1ccc1c3ccccc3n(Cc3ccccc3)c21`, the TGI in [2], in assay [3], in assay [10], in assay [4], in [5] and in assay [6] was above 100 µM throughout. The TGI in [9] was above 100 µM.

Consider `CC(=O)Nc1ccc(-n2cnc3cc(-c4ccc(OCCN5CCCCC5)cc4)ccc32)cc1`, for which the GI50 in assay [2] is 3.61 µM; in [3] it was 6.01 µM; in [10], 7.88 µM; in assay [4] it was 0.667 µM; in assay [5] it was 1.12 µM; in [6] it was 0.358 µM. The results for the GI50 in [7], in assay [8] and in [9] were 5.81 µM, 5.07 µM and 0.973 µM, respectively. The TGI stood at 11.4 µM in assay [2]; 11.7 µM in [3]; 28 µM in assay [10]; 1.3 µM in assay [4]; 3.92 µM in assay [5]; 5.76 µM in assay [6]. Also, the TGI in [7] amounted to 10.4 µM; in assay [8], 11.6 µM; in assay [9], 2.79 µM.

Consider `Cc1csc(Nc2nc(-c3cccc(Cl)c3)nc(C(Cl)(Cl)Cl)n2)n1`, for which the GI50 in [2] is 0.888 µM; in [3], 3.07 µM; in [10], 1.25 µM; in [4] it was 2.29 µM; in assay [5], 1.04 µM; in assay [6] it was 1.64 µM. Further, the GI50 in [7] is 7.83 µM; in assay [8] it was 23.7 µM; in assay [9], 2.21 µM. For the same molecule, the TGI is 3.46 µM in assay [2]; above 33.3 µM in assay [3]; 6.89 µM in assay [10]; above 33.3 µM in [4]; 13.1 µM in [5]; 6.21 µM in assay [6]. Also, the TGI in assay [7], in [8] and in [9] was above 33.3 µM each time.

On to `O=C(CC(C(=O)O)N1CCOCC1)c1ccccc1` (stereo not drawn), for which the TGI in assay [1] worked out at 63 µM; in assay [2] it was 30.7 µM; in [10], 38.4 µM; in [4], 27 µM; in assay [5], 32.1 µM; in assay [8], 40.6 µM. Besides, the TGI in [9] was 44.1 µM.

On to `COc1ccc(-n2nc(C)c3c2N(C)C2(C)C[C@@H]4C3(C)[C@@H]3CC4(C2)N(C)c2c(c(C)nn2-c2ccc(OC)cc2)[C@H]3C)cc1` (stereo partly drawn), for which the GI50 in assay [1] is 3.95 µM; in assay [2], 6.13 µM; in assay [4], 2.09 µM; in [5], 3.39 µM; in [8] it was 18.7 µM. In addition, the TGI was 26.9 µM in [1]; above 100 µM in assay [2]; above 100 µM in [4]; above 100 µM in assay [5]; 99.9 µM in assay [8].

For `N#CC(=C=[N-])[n+]1ccc(Cl)cc1`, the TGI came out at 86.6 µM in assay [1]; 10.9 µM in [3]; 33.8 µM in [10]; 31.2 µM in assay [4]; 33.8 µM in [5]; 59.7 µM in [6]. Besides, the TGI in assay [8] is 29.9 µM; in assay [9] it was 23.4 µM.

On to `O=C1/C(=C/c2ccccc2)CN(C(=O)OCC(Cl)(Cl)Cl)C/C1=C\c1ccccc1`, for which the TGI in assay [1] came to 6.29 µM; in assay [2] it was 4.68 µM; in [4] it was 2.6 µM; in assay [5], 3.63 µM; in [6], 3.74 µM; in [8] it was 9.46 µM. In [9], this molecule registered a TGI of 2.3 µM.

On to `CCC1NCC(=O)c2c1[nH]c1ccccc21` (stereo not drawn), for which the TGI in assay [1], in assay [2], in [3], in assay [10], in assay [4] and in [5] was above 100 µM in each case. Besides, the TGI in [6], in assay [8] and in assay [9] was above 100 µM in each case.

Regarding `COC(=O)C1=C(O)C(C(=O)OC)[C@@]2(O)[C@@H](C(=O)OC)C(c3ccc(OC(=O)C(CC(C)C)NC(C)=O)cc3)C[C@@H]1[C@@H]2C(=O)OC` (stereo partly drawn), the GI50 in [2] was 41.9 µM; in [3], above 100 µM; in assay [10], 39.7 µM; in assay [4] it was 29.3 µM; in assay [5], 62.2 µM; in assay [6], 28.2 µM. For the same molecule, the figures for the GI50 in [7], in assay [8] and in [9] were above 100 µM, 36.9 µM and 55.5 µM, respectively. The TGI in assay [2], in [3], in [10], in [4], in [5] and in [6] was above 100 µM in each case. The TGI in [7], in assay [8] and in assay [9] was above 100 µM each time.

For `Cc1cccc(CC(C)(C)C)c1NC(=O)C(=O)C(C(=O)c1ccc2ccccc2c1)C1OC(=O)c2ccccc21` (stereo not drawn), the TGI in [1] is 30.9 µM; in assay [2], 56.2 µM; in [3], above 100 µM; in [10] it was 82.1 µM; in assay [4] it was above 100 µM; in assay [5], 51.6 µM. The TGI is 30.3 µM in assay [6], 19.2 µM in assay [8] and 38.7 µM in [9].

As for `CCN1CC2(C)CC[C@@H](OC)C34[C@@H]2[C@H](OC(C)=O)C2(OCO[C@@]25C[C@H](OC)C2C[C@]3(O)[C@@H]5[C@H]2O)[C@H]14`, the TGI in assay [3], in [10], in [4], in assay [5], in assay [6] and in [8] was above 100 µM each time. In assay [9], this molecule registered a TGI above 100 µM.

As for `C/C(=N\NC(=S)N1CCC(C2CCN(C(=S)N/N=C(\C)c3ccccn3)CC2)CC1)c1ccccn1`, the TGI in assay [1], in assay [2], in assay [3], in [10], in assay [4] and in [5] was above 100 µM in each case. The TGI in assay [6], in assay [8] and in assay [9] was above 100 µM in each case.

Consider `O=C(OCc1nc2ccc(Br)cc2c(=O)n1-c1ccccc1)c1ccccc1O`, for which the TGI in assay [1], in assay [2], in assay [3], in assay [10], in [4] and in assay [5] was above 100 µM in each case. The TGI in assay [6], in assay [8] and in assay [9] was above 100 µM in each case.

Turning to `Cc1cccc(N2C(=O)/C(=C/c3ccc(N(CCC#N)CCC#N)cc3C)N=C2c2cc([N+](=O)[O-])ccc2Cl)c1`, the TGI in assay [1], in assay [2], in assay [3], in assay [10], in assay [4] and in [5] was above 100 µM throughout. Moreover, the TGI in assay [6], in [8] and in assay [9] was above 100 µM each time.

Turning to `CC(C)=C1CCC(CN2CCCC2)C1=O` (stereo not drawn), the TGI in assay [1] is above 100 µM; in [2] it was 32.7 µM; in [3], 28.9 µM; in assay [10] it was above 100 µM; in assay [4] it was 31.6 µM; in [5], 53.5 µM. Further, the TGI in [6] is above 100 µM; in assay [8], above 100 µM; in [9], 47.5 µM.

Consider `O=C1CC2Sc3ccccc3N=C2N1c1ccc(Cl)cc1Cl` (stereo not drawn), for which the TGI in assay [2], in assay [10], in assay [4], in assay [5], in [6] and in assay [8] was above 100 µM throughout. In [9], this molecule returned a TGI above 100 µM.

Regarding `CCOC(=N)CC(=O)NC(C)c1ccccc1` (stereo not drawn), the TGI in assay [1], in assay [2], in [3], in assay [10], in assay [4] and in assay [5] was above 100 µM each time. Also, the TGI in [6], in [8] and in assay [9] was above 100 µM each time.

Regarding `CCCCCCCCCCCCCCCC(=O)N[C@H]1CCc2cc(OC)c(OC)c(OC)c2-c2ccc(SC)c(=O)cc21`, the GI50 in assay [1] was 2.27 µM; in assay [2], 3.88 µM; in assay [3], 6.7 µM; in [10], 4.22 µM; in [4] it was 1.04 µM; in assay [5] it was 1.81 µM. The results for the GI50 in assay [6], in assay [8] and in assay [9] were 0.845 µM, 1.25 µM and 2.1 µM, respectively. Besides, the TGI in [1] is 3.64 µM and 5.35 µM; in [2], 22.4 µM and 19.7 µM; in assay [3], 80 µM and 21.8 µM; in assay [4], 3.67 µM and 3.49 µM; in [5], 0.853 µM and 4.66 µM; in assay [6], 8.4 µM and 3.73 µM. Moreover, the TGI is 1.96 µM and 3.85 µM in assay [8]; 15.6 µM and 10.8 µM in assay [9].

For the molecule `O=C1/C(=C/c2ccccc2)CN(C(=O)Oc2ccc([N+](=O)[O-])cc2)C/C1=C\c1ccccc1`, the GI50 is 4.94 µM in [2]; 0.303 µM in assay [4]; 1.88 µM in [6]; 9.79 µM in assay [8]; 1.27 µM in [9]. For the same molecule, the TGI in [4] was 1.65 µM and 1.08 µM; in assay [5], 4.36 µM and 4.04 µM; in assay [6] it was 2.89 µM and 5.49 µM; in assay [9], 2.47 µM.

Take `CCOC(=O)NNC(=O)NC12CC3CC(CC(C3)C1)C2`: the TGI in assay [1], in assay [2], in [3], in [10], in assay [4] and in assay [5] was above 100 µM in each case. For the same molecule, the TGI in [6], in assay [8] and in assay [9] was above 100 µM each time.

Regarding `C/C(=N/Nc1ccc([N+](=O)[O-])cc1[N+](=O)[O-])C(CC(C(=O)Nc1ccccc1C)/C(C)=N\Nc1ccc([N+](=O)[O-])cc1[N+](=O)[O-])C(=O)Nc1ccccc1C` (stereo not drawn), the TGI in [1] is 34 µM; in assay [2], above 49.6 µM; in assay [3], 30 µM; in [10], 38 µM; in assay [4], 26.4 µM; in assay [5] it was 28 µM. The TGI was 38.5 µM in assay [6], 25.5 µM in [8] and 42.3 µM in assay [9].

In the case of `CC[C@@]1(O)C(=O)OCc2c1cc1n(c2=O)Cc2cc3c(NC(C)=O)c(O)ccc3nc2-1`, the GI50 in assay [1] is 5.9 µM; in [2], 0.389 µM; in [3], 0.468 µM; in assay [10], 81.4 µM; in assay [4], 2.41 µM; in assay [5] it was 13.7 µM. Further, the GI50 was 14.4 µM in [6], 0.762 µM in [8] and 1.94 µM in assay [9]. The TGI was 22.5 µM in assay [1]; 2.85 µM in assay [2]; 13.7 µM in [3]; above 100 µM in [10]; 24.6 µM in assay [4]; above 77.5 µM in assay [5]. Moreover, the TGI in assay [6] is above 61.3 µM; in assay [8], 9.15 µM; in assay [9], above 100 µM.

With `C=C(C)[C@]12CC(C)C34OC(/C=C\C=C\CCCCCCCCC)(O[C@@H]1[C@@H]3[C@@H]1O[C@]1(CO)[C@@H](O)[C@]1(O)C(=O)C(C)=C[C@@H]41)O2` (stereo partly drawn), the TGI was 22.8 µM in assay [2]; 27.8 µM in assay [10]; 21 µM in [4]; 8.26 µM in assay [5]; 21.7 µM in assay [6]; 21.5 µM in assay [7]. In addition, the TGI in [8] amounted to 29.2 µM. Further, in assay [7], the GI50 is below 0.0001 µM.
